Laboratory results published in ChEMBL document CHEMBL4152339, “Design and synthesis of novel 1H-tetrazol-5-amine based potent antimicrobial agents: DNA topoisomerase IV and gyrase affinity evaluation supported by molecular docking studies” (Eur J Med Chem, 2018).
≈ marks a conversion by molar mass, not a printed value.

Legend:
Staphylococcus aureus [1] = assay: Antibacterial activity against Staphylococcus aureus NCTC 4163 after 18 hrs by CLSI disc diffusion method; type: functional; conditions: NCTC 4163, 18 h
Staphylococcus aureus [2] = assay: Antibacterial activity against Staphylococcus aureus ATCC 25923 after 18 hrs by CLSI disc diffusion method; type: functional; conditions: ATCC 25923, 18 h
Staphylococcus aureus [3] = assay: Antibacterial activity against Staphylococcus aureus ATCC 6538 after 18 hrs by CLSI disc diffusion method; type: functional; conditions: ATCC 6538, 18 h
[4] = test system: Staphylococcus epidermidis; assay: Antibacterial activity against Staphylococcus epidermidis ATCC 12228 after 18 hrs by CLSI disc diffusion method; type: functional; conditions: ATCC 12228, 18 h
[5] = test system: Staphylococcus epidermidis; assay: Antibacterial activity against Staphylococcus epidermidis ATCC 35984 after 18 hrs by CLSI […] method; type: functional; conditions: ATCC 35984, 18 h
Bacillus spizizenii = assay: Antibacterial activity against Bacillus subtilis ATCC 6633 after 18 hrs by CLSI disc diffusion method; type: functional; conditions: ATCC 6633, 18 h
Bacillus cereus = assay: Antibacterial activity against Bacillus cereus ATCC 11778 after 18 hrs by CLSI disc diffusion method; type: functional; conditions: ATCC 11778, 18 h
Enterococcus hirae = assay: Antibacterial activity against Enterococcus hirae ATCC 10541 after 18 hrs by CLSI disc diffusion method; type: functional; conditions: ATCC 10541, 18 h
Enterococcus faecalis = assay: Antibacterial activity against Enterococcus faecalis ATCC 29212 after 18 hrs by CLSI disc diffusion method; type: functional; conditions: ATCC 29212, 18 h
Micrococcus luteus [6] = assay: Antibacterial activity against Micrococcus luteus ATCC 10240 after 18 hrs by CLSI disc diffusion method; type: functional; conditions: ATCC 10240, 18 h
Micrococcus luteus [7] = assay: Antibacterial activity against Micrococcus luteus ATCC 9341 after 18 hrs by CLSI disc diffusion method; type: functional; conditions: ATCC 9341, 18 h
Escherichia coli [8] = assay: Antibacterial activity against Escherichia coli ATCC 10538 after 18 hrs by CLSI disc diffusion method; type: functional; conditions: ATCC 10538, 18 h
Proteus vulgaris = assay: Antibacterial activity against Proteus vulgaris NCTC 4635 after 18 hrs by CLSI disc diffusion method; type: functional; conditions: NCTC 4635, 18 h
Pseudomonas aeruginosa [9] = assay: Antibacterial activity against Pseudomonas aeruginosa ATCC 15442 after 18 hrs by CLSI disc diffusion method; type: functional; conditions: ATCC 15442, 18 h
Pseudomonas aeruginosa [10] = assay: Antibacterial activity against Pseudomonas aeruginosa ATCC 27853 after 18 hrs by CLSI disc diffusion method; type: functional; conditions: ATCC 27853, 18 h
[11] = test system: Bordetella bronchiseptica; assay: Antibacterial activity against Bordetella bronchiseptica ATCC 4617 after 18 hrs by CLSI disc diffusion method; type: functional; conditions: ATCC 4617, 18 h
Staphylococcus aureus [12] = assay: Antibacterial activity against Staphylococcus aureus 495 after 18 hrs by CLSI disc diffusion method; type: functional; conditions: Staphylococcus aureus, 495, 18 h
Staphylococcus aureus [13] = assay: Antibacterial activity against Staphylococcus aureus 496 after 18 hrs by CLSI disc diffusion method; type: functional; conditions: Staphylococcus aureus, 496, 18 h
Staphylococcus aureus [14] = assay: Antibacterial activity against Staphylococcus aureus 497 after 18 hrs by CLSI disc diffusion method; type: functional; conditions: Staphylococcus aureus, 497, 18 h
Staphylococcus aureus [15] = assay: Antibacterial activity against Staphylococcus aureus 498 after 18 hrs by CLSI disc diffusion method; type: functional; conditions: Staphylococcus aureus, 498, 18 h
Staphylococcus aureus [16] = assay: Antibacterial activity against Staphylococcus aureus 537 after 18 hrs by CLSI disc diffusion method; type: functional; conditions: Staphylococcus aureus, 537, 18 h
Staphylococcus aureus [17] = assay: Antibacterial activity against Staphylococcus aureus 572 after 18 hrs by CLSI disc diffusion method; type: functional; conditions: Staphylococcus aureus, 572, 18 h
Staphylococcus aureus [18] = assay: Antibacterial activity against Staphylococcus aureus 585 after 18 hrs by CLSI disc diffusion method; type: functional; conditions: Staphylococcus aureus, 585, 18 h
Staphylococcus aureus [19] = assay: Antibacterial activity against Staphylococcus aureus 586 after 18 hrs by CLSI disc diffusion method; type: functional; conditions: Staphylococcus aureus, 586, 18 h
[20] = test system: Staphylococcus epidermidis; assay: Antibacterial activity against Staphylococcus epidermidis 423 after 18 hrs by CLSI disc diffusion method; type: functional; conditions: Staphylococcus epidermidis, 423, 18 h
[21] = test system: Staphylococcus epidermidis; assay: Antibacterial activity against Staphylococcus epidermidis 431 after 18 hrs by CLSI disc diffusion method; type: functional; conditions: Staphylococcus epidermidis, 431, 18 h
[22] = test system: Staphylococcus epidermidis; assay: Antibacterial activity against Staphylococcus epidermidis 432 after 18 hrs by CLSI disc diffusion method; type: functional; conditions: Staphylococcus epidermidis, 432, 18 h
[23] = test system: Staphylococcus epidermidis; assay: Antibacterial activity against Staphylococcus epidermidis 433 after 18 hrs by CLSI disc diffusion method; type: functional; conditions: Staphylococcus epidermidis, 433, 18 h
[24] = test system: Staphylococcus epidermidis; assay: Antibacterial activity against Staphylococcus epidermidis 469 after 18 hrs by CLSI disc diffusion method; type: functional; conditions: Staphylococcus epidermidis, 469, 18 h
[25] = test system: Staphylococcus epidermidis; assay: Antibacterial activity against Staphylococcus epidermidis 471 after 18 hrs by CLSI disc diffusion method; type: functional; conditions: Staphylococcus epidermidis, 471, 18 h
[26] = test system: Staphylococcus epidermidis; assay: Antibacterial activity against Staphylococcus epidermidis 510 after 18 hrs by CLSI disc diffusion method; type: functional; conditions: Staphylococcus epidermidis, 510, 18 h
[27] = test system: Staphylococcus epidermidis; assay: Antibacterial activity against Staphylococcus epidermidis 511 after 18 hrs by CLSI disc diffusion method; type: functional; conditions: Staphylococcus epidermidis, 511, 18 h
Pseudomonas aeruginosa [28] = assay: Antibacterial activity against Pseudomonas aeruginosa 6m after 18 hrs by CLSI disc diffusion method; type: functional
Pseudomonas aeruginosa [29] = assay: Antibacterial activity against Pseudomonas aeruginosa 7m after 18 hrs by CLSI disc diffusion method; type: functional
Pseudomonas aeruginosa [30] = assay: Antibacterial activity against Pseudomonas aeruginosa 10m after 18 hrs by CLSI disc diffusion method; type: functional
Pseudomonas aeruginosa [31] = assay: Antibacterial activity against Pseudomonas aeruginosa 11m after 18 hrs by CLSI disc diffusion method; type: functional
Pseudomonas aeruginosa [32] = assay: Antibacterial activity against Pseudomonas aeruginosa 12m after 18 hrs by CLSI disc diffusion method; type: functional
Pseudomonas aeruginosa [33] = assay: Antibacterial activity against Pseudomonas aeruginosa 16m after 18 hrs by CLSI disc diffusion method; type: functional
Pseudomonas aeruginosa [34] = assay: Antibacterial activity against Pseudomonas aeruginosa 18m after 18 hrs by CLSI disc diffusion method; type: functional
Pseudomonas aeruginosa [35] = assay: Antibacterial activity against Pseudomonas aeruginosa 31m after 18 hrs by CLSI disc diffusion method; type: functional
Escherichia coli [36] = assay: Antibacterial activity against Escherichia coli ML 5 after 18 hrs by CLSI disc diffusion method; type: functional; conditions: ML 5, 18 h
Escherichia coli [37] = assay: Antibacterial activity against Escherichia coli ML 6 after 18 hrs by CLSI disc diffusion method; type: functional; conditions: ML 6, 18 h
Escherichia coli [38] = assay: Antibacterial activity against Escherichia coli ML 8 after 18 hrs by CLSI disc diffusion method; type: functional; conditions: ML 8, 18 h
Escherichia coli [39] = assay: Antibacterial activity against Escherichia coli ML 9 after 18 hrs by CLSI disc diffusion method; type: functional; conditions: ML 9, 18 h
Escherichia coli [40] = assay: Antibacterial activity against Escherichia coli ML 12 after 18 hrs by CLSI disc diffusion method; type: functional; conditions: ML 12, 18 h
Escherichia coli [41] = assay: Antibacterial activity against Escherichia coli ML 15 after 18 hrs by CLSI disc diffusion method; type: functional; conditions: ML 15, 18 h
Escherichia coli [42] = assay: Antibacterial activity against Escherichia coli ML 16 after 18 hrs by CLSI disc diffusion method; type: functional; conditions: ML 16, 18 h
Escherichia coli [43] = assay: Antibacterial activity against Escherichia coli ML 17 after 18 hrs by CLSI disc diffusion method; type: functional; conditions: ML 17, 18 h
A549 = assay: Cytotoxicity activity against human A549 cells assessed as reduction in cell viability after 72 hrs by MTT assay; type: cell-based; conditions: A549, 72 h
HaCaT = assay: Cytotoxicity activity against human HaCaT cells assessed as reduction in cell viability after 72 hrs by MTT assay; type: cell-based
[44] = Selectivity index, ratio of IC50 for human HaCaT cells to MIC for Staphylococcus aureus NCTC 4163; type: toxicity; conditions: read-out: Selectivity Index
[45] = Selectivity index, ratio of IC50 for human HaCaT cells to MIC for Bacillus subtilis ATCC 6633; type: toxicity; conditions: read-out: Selectivity Index
[46] = Selectivity index, ratio of IC50 for human HaCaT cells to MIC for Enterococcus hirae ATCC 10541; type: toxicity; conditions: read-out: Selectivity Index
[47] = Selectivity index, ratio of IC50 for human HaCaT cells to MIC for Micrococcus luteus ATCC 10240; type: toxicity; conditions: read-out: Selectivity Index
[48] = Selectivity index, ratio of IC50 for human HaCaT cells to MIC for Escherichia coli ATCC 10538; type: toxicity; conditions: read-out: Selectivity Index
[49] = Selectivity index, ratio of IC50 for human HaCaT cells to MIC for Proteus vulgaris NCTC 4635; type: toxicity; conditions: read-out: Selectivity Index
[50] = Selectivity index, ratio of IC50 for human HaCaT cells to MIC for Bordetella bronchiseptica ATCC 4617; type: toxicity; conditions: read-out: Selectivity Index
[51] = Inhibition of Staphylococcus aureus DNA topoisomerase 4 using Kinetoplast DNA as substrate after 30 mins by ethidium bromide staining based agarose gel electrophoresis method

## Cc1ccc(-n2nnnc2NCc2ccco2)cc1Cl
Staphylococcus aureus [1]
  MIC: 14 µM (≈ 4.06 µg/mL)
Staphylococcus aureus [2]
  MIC: 14 µM (≈ 4.06 µg/mL)
Staphylococcus aureus [3]
  MIC: 7 µM (≈ 2.03 µg/mL)
[4]
  MIC: 7 µM (≈ 2.03 µg/mL)
[5]
  MIC: 7 µM (≈ 2.03 µg/mL)
Bacillus spizizenii
  MIC: 7 µM (≈ 2.03 µg/mL)
Bacillus cereus
  MIC: 7 µM (≈ 2.03 µg/mL)
Enterococcus hirae
  MIC: 28 µM (≈ 8.11 µg/mL)
Enterococcus faecalis
  MIC: 56 µM (≈ 16.2 µg/mL)
Micrococcus luteus [6]
  MIC: 7 µM (≈ 2.03 µg/mL)
Micrococcus luteus [7]
  MIC: 14 µM (≈ 4.06 µg/mL)
Escherichia coli [8]
  MIC: 14 µM (≈ 4.06 µg/mL)
Proteus vulgaris
  MIC: 14 µM (≈ 4.06 µg/mL)
Pseudomonas aeruginosa [9]
  MIC: 111 µM (≈ 32.2 µg/mL)
Pseudomonas aeruginosa [10]
  MIC: 14 µM (≈ 4.06 µg/mL)
[11]
  MIC: 14 µM (≈ 4.06 µg/mL)
Staphylococcus aureus [12]
  MIC: 7 µM (≈ 2.03 µg/mL)
Staphylococcus aureus [13]
  MIC: 14 µM (≈ 4.06 µg/mL)
Staphylococcus aureus [14]
  MIC: 7 µM (≈ 2.03 µg/mL)
Staphylococcus aureus [15]
  MIC: 7 µM (≈ 2.03 µg/mL)
Staphylococcus aureus [16]
  MIC: 14 µM (≈ 4.06 µg/mL)
Staphylococcus aureus [17]
  MIC: 14 µM (≈ 4.06 µg/mL)
Staphylococcus aureus [18]
  MIC: 7 µM (≈ 2.03 µg/mL)
Staphylococcus aureus [19]
  MIC: 14 µM (≈ 4.06 µg/mL)
[20]
  MIC: 7 µM (≈ 2.03 µg/mL)
[21]
  MIC: 7 µM (≈ 2.03 µg/mL)
[22]
  MIC: 14 µM (≈ 4.06 µg/mL)
[23]
  MIC: 14 µM (≈ 4.06 µg/mL)
[24]
  MIC: 7 µM (≈ 2.03 µg/mL)
[25]
  MIC: 14 µM (≈ 4.06 µg/mL)
[26]
  MIC: 14 µM (≈ 4.06 µg/mL)
[27]
  MIC: 14 µM (≈ 4.06 µg/mL)
Pseudomonas aeruginosa [28]
  MIC: 14 µM (≈ 4.06 µg/mL)
Pseudomonas aeruginosa [29]
  MIC: 14 µM (≈ 4.06 µg/mL)
Pseudomonas aeruginosa [30]
  MIC: 14 µM (≈ 4.06 µg/mL)
Pseudomonas aeruginosa [31]
  MIC: 28 µM (≈ 8.11 µg/mL)
Pseudomonas aeruginosa [32]
  MIC: 14 µM (≈ 4.06 µg/mL)
Pseudomonas aeruginosa [33]
  MIC: 28 µM (≈ 8.11 µg/mL)
Pseudomonas aeruginosa [34]
  MIC: 28 µM (≈ 8.11 µg/mL)
Pseudomonas aeruginosa [35]
  MIC: 14 µM (≈ 4.06 µg/mL)
Escherichia coli [36]
  MIC: 14 µM (≈ 4.06 µg/mL)
Escherichia coli [37]
  MIC: 111 µM (≈ 32.2 µg/mL)
Escherichia coli [38]
  MIC: 14 µM (≈ 4.06 µg/mL)
Escherichia coli [39]
  MIC: 28 µM (≈ 8.11 µg/mL)
Escherichia coli [40]
  MIC: 111 µM (≈ 32.2 µg/mL)
Escherichia coli [41]
  MIC: 111 µM (≈ 32.2 µg/mL)
Escherichia coli [42]
  MIC: 14 µM (≈ 4.06 µg/mL)
Escherichia coli [43]
  MIC: 14 µM (≈ 4.06 µg/mL)
A549
  IC50: 78 µM
HaCaT
  IC50: 80 µM
[44]
  selectivity ratio: 5.71
[45]
  selectivity ratio: 11.4
[46]
  selectivity ratio: 2.85
[47]
  selectivity ratio: 11.4
[48]
  selectivity ratio: 11.4
[49]
  selectivity ratio: 11.4
[50]
  selectivity ratio: 11.4
[51]
  IC50: 11.9 µg/mL (≈ 41.1 µM)
